The results in this text go back to patent publication US20110217300A1, “Quinazolinone Compounds and Methods of Use Thereof” (priority 2007, published 2011).

Like-named read-outs stand apart in the source and are kept apart here.

Test [1] concerns the target T1, HsEg5 (Homo sapiens, UniProt P52732).
T1 sequence (P52732 18-359 limits assumed): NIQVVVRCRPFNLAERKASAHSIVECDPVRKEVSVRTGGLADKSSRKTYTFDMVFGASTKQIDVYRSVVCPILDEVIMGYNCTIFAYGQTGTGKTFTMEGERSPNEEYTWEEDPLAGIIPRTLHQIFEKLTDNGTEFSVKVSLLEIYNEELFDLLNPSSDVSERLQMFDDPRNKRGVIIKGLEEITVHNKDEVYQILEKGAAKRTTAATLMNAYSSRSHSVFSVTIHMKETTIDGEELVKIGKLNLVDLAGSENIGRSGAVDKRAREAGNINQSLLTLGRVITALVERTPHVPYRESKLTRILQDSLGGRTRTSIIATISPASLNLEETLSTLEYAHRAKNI
The test can be described thus: Luminescent detection of HsEg5 ATPase activity (Kinase-Glo Plus). The test is classed as biochemical. The method, then: Purified HsEg5 motor fragment was activated by mixture with preformed MT polymer (Cytoskeleton, Denver, Colo.) at room temperature for 20 minutes. MT activated ATPase activity was measured using Kinase-Glo® Plus Luminescent Kinase Assay (Promega, Madison, Wis.).
For inhibitor screening, 5 μL of compounds were incubated with 20 μL of MT-activated HsEg5 such that the final concentrations for compound range from 100 μM to 5 nM (1 to 3 serial dilutions, final concentration) and final concentration for HsEg5 is 25 nM. The mixture was incubated at room temperature for 20 minutes with mild shaking. The screening assay contained 0.3% DMSO in all reaction wells. We used wells containing only DMSO as negative controls and wells without ATP as background. Addition of 15 μL of 13 μM ATP (final concentration of 5 μM) initiated the ATP hydrolysis reaction. The 40 μL-reaction was allowed to proceed at room temperature for 45 minutes before addition of 40 μL of Kinase®-Glo Plus. After 15-minute development at room temperature, the luminescent was measured.
Eg5 IC50 data was generated using both fluorescence and Luminescence detection assays as described above. Compounds I-69 were screened using automated fluorescence assay while compounds 70-83 were screened using Luminescence detection assay. (See reference “Zhang B, Senator D, Wilson C J, Ng S C. (2005) “Development of a high-throughput robotic fluorescence-based assay for HsEg5 inhibitor screening” Anal Biochem. 345:326-335″).
For orientation: Kinase-Glo reads ATP consumption through a luciferase reaction.

The test system of a further test is A549. The test can be described thus: MTS cell viability assay. The settings on record: Homo sapiens, read-out: MTS NCI A549 GI50. The format is cell-based. A digest of the protocol: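 A549 and a second human cancer line seeded in DMEM/10% FBS, allowed 16–24 h to attach, then exposed 72 h at 37 °C, 5% CO2 to serially diluted compound (final DMSO 0.33%). Viability measured by MTS.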
On the technique in general: Formazan colour is commonly taken as a measure of viable cells.

A further test concerns NCI-H460. The test can be described thus: MTS cell viability assay. The test is classed as cell-based, human. The settings on record: Homo sapiens, NCI-H460, 72 h. The procedure, abridged: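 Growth inhibition is assessed by MTS conversion in human cancer cells cultured in DMEM with 10% FBS. Compound exposure lasts 72 h at 0.33% final DMSO, and GI50 is derived from […] readings.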

The target in test [2] is T1, HsEg5. The test can be described thus: Fluorescence detection of HsEg5 ATPase activity (ADP Quest, automated). The format is biochemical. A digest of the protocol:
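Microtubule-activated HsEg5 motor fragment (10 nM, 500 nM MTs) preincubated 10 min with compound, then 20 μM ATP for 10 min at room temperature in Pipes pH 7.0, MgCl2, paclitaxel, 0.3% DMSO. ADP detected via coupled-enzyme resorufin fluorescence; IC50 over 100 μM–5 nM.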

Setting [3] is: A549, 72 h, A549 non small cell lung, 72 hours.
The mark [4] stands for this setting: read-out: MTS NCI H460 GI50, NCI-H460 non small cell lung, 72 hours.
[5] abbreviates: A549 non small cell lung, 72 hours.

For `C#CC[C@H](c1nc2cc(Cl)ccc2c(=O)n1Nc1ccccc1)N(CCCN)C(=O)c1c(F)c(F)cc(F)c1F` [Compound 71], the IC50 at HsEg5 [1] was 160 nM. For the same molecule, the GI50 in the test on A549 (A549, 72 h) was found to be 840 nM; in the test with NCI-H460 (read-out: MTS NCI H460 GI50), 320 nM.

In the case of `C#CC[C@H](c1nc2cc(Cl)ccc2c(=O)n1Nc1ccccc1)N(CCCN)C(=O)c1cc(F)cc(F)c1` [Compound 80, (R)—N-(3-Aminopropyl)-N-(1-(7-chloro-4-oxo-3-(phenylamino)-3,4-dihydroquinazolin-2-yl)but-3-ynyl)-3,5-difluorobenzamide], the IC50 on HsEg5 [1] turned out to be 90 nM. The GI50 in the test with A549 (A549, 72 h) turned out to be 580 nM; in the test with NCI-H460 (read-out: MTS NCI H460 GI50) it was 100 nM.

As to `C#CC[C@H](c1nc2cc(Cl)ccc2c(=O)n1Nc1ccccc1)N(CCCN)C(=O)c1c(F)cc(Cl)cc1F` [Compound 79], at HsEg5 [1], the IC50 is 550 nM. In addition, the GI50 is 1300 nM in the test with A549 (A549, 72 h) and 430 nM in the test with NCI-H460 (read-out: MTS NCI H460 GI50).

With `C#CC[C@H](c1nc2cc(Cl)ccc2c(=O)n1Nc1ccccc1)N(CCCN)C(=O)c1c(OC)ccc(F)c1F` [Compound 77], on HsEg5 [1], the IC50 turned out to be 70 nM. The GI50 in the test on A549 (A549, 72 h) worked out at 860 nM; in the test with NCI-H460 (read-out: MTS NCI H460 GI50) it was 530 nM.

For the molecule `C#CC[C@H](c1nc2cc(Cl)ccc2c(=O)n1Nc1ccccc1)N(CCCN)C(=O)c1ccc(OC)c(F)c1F` [Compound 78], the IC50 at HsEg5 [1] is 40 nM. Also, the GI50 with A549 (A549, 72 h) is 1450 nM; in the test with NCI-H460 (read-out: MTS NCI H460 GI50) it was 700 nM.

As for `C#CC[C@H](c1nc2cc(Cl)ccc2c(=O)n1Nc1ccccc1)N(CCCN)C(=O)c1cc2ccccc2s1` [Compound 73, (R)—N-(3-Aminopropyl)-N-(1-(7-chloro-4-oxo-3-(phenylamino)-3,4-dihydroquinazolin-2-yl)but-3-ynyl)benzo[b]thiophene-2-carboxamide], on HsEg5 [1], the IC50 worked out at 120 nM. Further, the GI50 with A549 (A549, 72 h) turned out to be 490 nM; in the test on NCI-H460 (read-out: MTS NCI H460 GI50) it was 330 nM.

As for `C#CC[C@H](c1nc2cc(Cl)ccc2c(=O)n1Nc1ccccc1)N(CCCN)C(=O)c1ccc(C)c(F)c1F` [Compound 76, N-(3-Amino-propyl)-N—[(R)-1-(7-chloro-4-oxo-3-phenylamino-3,4-dihydro-quinazolin-2-yl)-but-3-ynyl]-2,3-difluoro-4-methyl-benzamide], the IC50 on HsEg5 [1] was 130 nM. The GI50 was determined as 1300 nM in the test on A549 (A549, 72 h) and 860 nM in the test with NCI-H460 (read-out: MTS NCI H460 GI50).

As for `CC#CCC(c1nc2cc(Cl)ccc2c(=O)n1Nc1ccccc1)N(CCCN)C(=O)c1cccc(Cl)c1F` (stereo not shown) [Compound 74, N-(3-Aminopropyl)-3-chloro-N-(1-(7-chloro-4-oxo-3-(phenylamino)-3,4-dihydroquinazolin-2-yl)pent-3-ynyl)-2-fluorobenzamide], the IC50 on HsEg5 [1] amounted to 5900 nM. Further, the GI50 came out at 1800 nM in the test with A549 (A549, 72 h) and 1230 nM in the test on NCI-H460 (read-out: MTS NCI H460 GI50).

`NCCCN(C(=O)c1ccc(F)c(Cl)c1)C(Cc1cccs1)c1nc2cc(Cl)ccc2c(=O)n1Nc1ccccc1` (stereo not shown) [Compound 53, N-(3-Aminopropyl)-N-[1-(3-anilino-7-chloro-4-oxo-3,4-dihydroquinazolin-2-yl)-2-(2-thienyl)ethyl]-3-chloro-4-fluorobenzamide] came in with an IC50 on HsEg5 [2] of 2620 nM. The GI50 amounted to 5260 nM with A549 (setting [3]) and 4440 nM in the test on NCI-H460 (setting [4]).

On to `CCC(c1nc2cc(Cl)ccc2c(=O)n1Nc1cc(F)ccc1F)N(CCCN)C(=O)c1ccc(C)cc1` (stereo not shown) [Compound 26, N-(3-Aminopropyl)-N-(1-{7-chloro-3-[(2,5-difluorophenyl)amino]-4-oxo-3,4-dihydroquinazolin-2-yl}propyl)-4-methylbenzamide], for which the IC50 against HsEg5 [2] stood at 944 nM. Further, the GI50 in the test with A549 (setting [5]) amounted to 1250 nM; in the test on NCI-H460 (read-out: MTS NCI H460 GI50) it was 889 nM.

As to `C#CC[C@H](c1nc2cc(Cl)ccc2c(=O)n1Nc1ccccc1)N(CCCN)C(=O)c1cccc(F)c1F` [Compound 82, (R)—N-(3-Aminopropyl)-N-(1-(7-chloro-4-oxo-3-(phenylamino)-3,4-dihydroquinazolin-2-yl)but-3-ynyl)-2,3-difluorobenzamide], the IC50 on HsEg5 [1] came out at 30 nM.

`CC[C@H](c1nc2cc(Cl)ccc2c(=O)n1Nc1ccccc1)N(CCCN)S(=O)(=O)c1ccsc1` [Compound 34, N-(3-Aminopropyl)-N-[(1R)-1-(3-anilino-7-chloro-4-oxo-3,4-dihydroquinazolin-2-yl)propyl]thiophene-3-sulfonamide] came in with an IC50 at HsEg5 [2] of 1650 nM. Moreover, the GI50 in the test with A549 (setting [5]) was 6360 nM; in the test with NCI-H460 (read-out: MTS NCI H460 GI50), 5470 nM.

In the case of `CCC(c1nc2cc(Cl)ccc2c(=O)n1Nc1ccccc1)N(CCCN)C(=O)c1ccc(C)c(F)c1F` (stereo not shown) [Compound 21, N-(3-Aminopropyl)-N-[1-(3-anilino-7-chloro-4-oxo-3,4-dihydroquinazolin-2-yl)propyl]-2,3-difluoro-4-methylbenzamide], the IC50 at HsEg5 [2] worked out at 1250 nM. The figures for the GI50 in the test with A549 (setting [3]) and with NCI-H460 (setting [4]) were 1930 nM and 1080 nM, respectively.

Regarding `CCC(c1nc2cc(Cl)ccc2c(=O)n1Nc1ccccc1)N(CCCN)C(=O)c1c(F)ccc(C)c1F` (stereo not shown) [Compound 17, N-(3-Aminopropyl)-N-[1-(3-anilino-7-chloro-4-oxo-3,4-dihydroquinazolin-2-yl)propyl]-2,6-difluoro-3-methylbenzamide], the half-inhibitory concentration (IC50) against HsEg5 [2] stood at 1600 nM. The GI50 with A549 (setting [3]) was determined as 2560 nM; in the test on NCI-H460 (setting [4]) it was 1590 nM.

As for `CCC(c1nc2ccc(C)cc2c(=O)n1Nc1ccccc1)N(CCCN)C(=O)c1ccc(C)cc1` (stereo not shown) [Compound 28, N-(3-Aminopropyl)-N-[1-(3-anilino-6-methyl-4-oxo-3,4-dihydroquinazolin-2-yl)propyl]-4-methylbenzamide], the IC50 against HsEg5 [2] amounted to 1590 nM. For the same molecule, the GI50 with A549 (setting [5]) is 2500 nM; with NCI-H460 (read-out: MTS NCI H460 GI50) it was 1350 nM.

In turn, `CC(C)(C)CC(c1nc2cc(Cl)ccc2c(=O)n1Nc1ccccc1)N(CCCN)C(=O)c1ccc(Br)cc1` (stereo not shown) [Compound 58, N-(3-Aminopropyl)-N-[1-(3-anilino-7-chloro-4-oxo-3,4-dihydroquinazolin-2-yl)-3,3-dimethylbutyl]-4-bromobenzamide] returned an IC50 on HsEg5 [2] of 3690 nM. Further, the GI50 is 5880 nM in the test with A549 (setting [5]) and 5550 nM in the test on NCI-H460 (read-out: MTS NCI H460 GI50).

As for `NCCCN(C(=O)c1ccc(F)c(F)c1F)C(Cc1ccc(O)cc1)c1nc2cc(Cl)ccc2c(=O)n1Nc1ccccc1` (stereo not shown) [Compound 55, N-(3-Aminopropyl)-N-[1-(3-anilino-7-chloro-4-oxo-3,4-dihydroquinazolin-2-yl)-2-(4-hydroxyphenyl)ethyl]-2,3,4-trifluorobenzamide], at HsEg5 [2], the IC50 worked out at 4160 nM. Further, the GI50 was determined as 33700 nM in the test with A549 (setting [3]) and 16100 nM in the test with NCI-H460 (setting [4]).

`CCC(c1nc2cc(Cl)ccc2c(=O)n1Nc1ccccc1)N(CCCN)C(=O)c1ccc(Cl)c(Cl)c1` (stereo not shown) [Compound 6, N-(3-Aminopropyl)-N-[1-(3-anilino-7-chloro-4-oxo-3,4-dihydroquinazolin-2-yl)propyl]-3,4-dichlorobenzamide] had an IC50 at HsEg5 [2] of 418 nM. For the same molecule, the GI50 in the test on A549 (setting [3]) was determined as 1870 nM; in the test on NCI-H460 (setting [4]), 1160 nM.

The molecule `CCC(c1nc2cc(Cl)ccc2c(=O)n1Nc1ccccc1)N(CCN)C(=O)c1ccc(F)c(C)c1` (stereo not shown) [Compound 63, N-(2-Aminoethyl)-N-[1-(3-anilino-7-chloro-4-oxo-3,4-dihydroquinazolin-2-yl)propyl]-4-fluoro-3-methylbenzamide] yielded an IC50 on HsEg5 [2] of 3340 nM. Also, the GI50 with A549 (setting [5]) is 7020 nM; in the test with NCI-H460 (read-out: MTS NCI H460 GI50), 10500 nM.

Consider `CCC(c1nc2cc(Cl)ccc2c(=O)n1Nc1ccccc1)N(CCCN)C(=O)c1ccc(F)c(F)c1F` (stereo not shown) [Compound 10, N-(3-Aminopropyl)-N-[1-(3-anilino-7-chloro-4-oxo-3,4-dihydroquinazolin-2-yl)propyl]-2,3,4-trifluorobenzamide], for which the midpoint of inhibition at HsEg5 [2], the IC50, lay at 599 nM. In addition, the GI50 in the test on A549 (setting [3]) stood at 2360 nM; in the test with NCI-H460 (setting [4]) it was 1140 nM.

The IC50 is the concentration needed to halve the response being measured. As usually defined, the GI50 is the concentration that inhibits growth by half.
